The text below walks through data of patent US20110245249A1, “Heterocyclically Substituted Anilinopyrimidines” (Bayer CropScience AG, priority 2008, published 2011).

For one data set, the system named is Fusarium proliferatum. The data set is described as follows: Growth of Fusarium proliferatum (OD620) in the fumonisin test. The data set is classed as cell-based. Particulars: for IC50: Fusarium proliferatum, 144 h, read-out: pI50 growth; for pI50 growth: OD620 at the beginning and after 6 days.
Data set [1] has as its system Production of Fumonisin FB1 by Fusarium proliferatum. The data set is described as follows: Production of Fumonisin FB1 by Fusarium proliferatum. In kind it is cell-based. Particulars: FB1 in liquid medium after 6 days at 20° C., HPLC-MS/MS; for IC50: Fusarium proliferatum, 144 h, read-out: pI50 Fum (converted).
The nature of data set [2]: logP by HPLC on reversed-phase columns (EEC Directive 79/831 Annex V.A8). The data set is classed as physicochemical. In a few lines: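 Reversed-phase C18 HPLC per EEC Directive 79/831 Annex V.A8, 10→95% acetonitrile linear gradient. Acidic runs: pH 2.3 with 0.1% aqueous phosphoric acid (HPLC), or pH 2.7 LC-MS with 0.1% formic acid in both phases. Neutral LC-MS at pH 7.8 using 0.001 molar aqueous ammonium bicarbonate.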

Broadly, the chromatographic logP is a lipophilicity value derived from retention on a column. Turning to `Clc1cnc(Nc2cccc(C3OCCCO3)c2)nc1NC1CC1` [Example 5, 5-Chloro-N^4-cyclopropyl-N^2-[3-(1,3-dioxan-2-yl)phenyl]pyrimidine-2,4-diamine], the results for the IC50 (in the data set on Fusarium proliferatum; in data set [1]) were 794 nM and 251 nM, respectively. Also, the chromatographic logP in data set [2] (pH 2.7, log p [b]) was determined as 1.69; in data set [2] (pH 2.7, logP (pH 2.7)), 1.69; in data set [2] (pH 7.8, log p [c]), 2.83.

Regarding `CC1(c2cccc(Nc3ncc(Cl)c(NC4CC4)n3)c2)OCCCO1` [Example 6], the pI50 growth with Fusarium proliferatum was found to be 5.5.

On to `CC1(c2cccc(Nc3ncc(Cl)c(NC4CC4)n3)c2)OCCO1` [Example 12, 5-Chloro-N^4-cyclopropyl-N^2-[3-(2-methyl-1,3-dioxolan-2-yl)phenyl]pyrimidine-2,4-diamine], for which the results for the IC50 (in the data set with Fusarium proliferatum; in data set [1]) were 1580 nM and 501 nM, respectively. For the same molecule, the chromatographic logP in data set [2] (pH 2.7, log p [b]) amounted to 1.9; in data set [2] (pH 2.7, logP (pH 2.7)), 1.9; in data set [2] (pH 7.8, log p [c]), 3.09.

Turning to `CC1OC(c2cccc(Nc3ncc(Br)c(NC4CC4)n3)c2)OC1C` (centres unmarked) [Example 14], in the data set on Fusarium proliferatum, the pI50 growth amounted to 5.5. The “log p [b]” value in data set [2] (pH 2.7) turned out to be 2.31. In data set [2] (pH 7.8), the “log p [c]” value was determined as 3.5.

As to `CC1(C)COC(c2cccc(Nc3ncc(Br)c(NC4CC4)n3)c2)OC1` [Example 16], in data set [1], the “pI50 Fum” value was found to be 6. Moreover, the “log p [b]” value in data set [2] (pH 2.7) was 2.65. The “log p [c]” value in data set [2] (pH 7.8) came out at 3.9.

In the data set on Fusarium proliferatum, `FC(F)(F)c1cnc(Nc2cccc(C3OCCO3)c2)nc1NC1CCC1` [Example 22] returned a pI50 growth of 5.5. Further, the “log p [b]” value in data set [2] (pH 2.7) came to 3.06. For the same molecule, the “log p [c]” value in data set [2] (pH 7.8) stood at 3.57.

Molecule `CN(c1nc(Nc2cccc(C3OCCO3)c2)ncc1Cl)C1CC1` [Example 23] returned a pI50 growth in the data set on Fusarium proliferatum of 4.9. In data set [2] (pH 2.7), the “log p [b]” value is given as 2.52. The “log p [c]” value in data set [2] (pH 7.8) is 3.45.

`FC(F)(F)c1cnc(Nc2cccc(C3OCCO3)c2)nc1NC1CC1` [Example 24] displayed a pI50 growth in the data set with Fusarium proliferatum of 5.5. Also, the “pI50 Fum” value in data set [1] was 6. Besides, in data set [2] (pH 2.7), the “log p [b]” value worked out at 3.7. Further, the “log p [c]” value in data set [2] (pH 7.8) turned out to be 3.02.

As for `COCC1COC(c2cccc(Nc3ncc(Cl)c(NC4CC4)n3)c2)O1` (centres unmarked) [Example 28], in data set [1], the “pI50 Fum” value came out at 6.5. Moreover, the “log p [b]” value in data set [2] (pH 2.7) is 2.21. Further, in data set [2] (pH 7.8), the “log p [c]” value is listed as 2.81.

Regarding `COc1ccc(Nc2ncc(Br)c(NC3CC3)n2)cc1C1OCCO1` [Example 138], the log p in data set [2] (pH 2.7) is on record as 1.5; in data set [2] (pH 7.8), 2.7.

For `COc1ccc(Nc2ncc(Br)c(NC3CCC3)n2)cc1C1OCCO1` [Example 139], the log p stood at 1.79 in data set [2] (pH 2.7) and 3.29 in data set [2] (pH 7.8).

As to `Fc1ccc(Nc2ncc(Br)c(NC3CC3)n2)cc1C1OCCO1` [Example 141], the log p was determined as 1.89 in data set [2] (pH 2.7) and 2.98 in data set [2] (pH 7.8).

In the case of `Fc1ccc(Nc2ncc(Br)c(NC3CCC3)n2)cc1C1OCCO1` [Example 142], the log p amounted to 2.22 in data set [2] (pH 2.7) and 3.55 in data set [2] (pH 7.8).

Take `Fc1ccc(Nc2ncc(C(F)(F)F)c(NC3CC3)n2)cc1C1OCCO1` [Example 143]: the log p in data set [2] (pH 2.7) stood at 2.76; in data set [2] (pH 7.8) it was 3.2.

For `Fc1ccc(Nc2ncc(Cl)c(NC3CC3)n2)cc1C1OCCCO1` [Example 144], the figures for the log p in data set [2] (pH 2.7) and in data set [2] (pH 7.8) were 1.87 and 3.02, respectively.

On to `Fc1ccc(Nc2ncc(Br)c(NC3CC3)n2)cc1C1OCCCO1` [Example 145], for which the log p in data set [2] (pH 2.7) was determined as 2.01; in data set [2] (pH 7.8), 3.16.

With `Fc1ccc(Nc2ncc(Br)c(NC3CCC3)n2)cc1C1OCCCO1` [Example 146], the values for the log p in data set [2] (pH 2.7) and in data set [2] (pH 7.8) were 2.3 and 3.75, respectively.

With `Fc1ccc(Nc2ncc(C(F)(F)F)c(NC3CC3)n2)cc1C1OCCCO1` [Example 147], the log p is reported as 2.27 in data set [2] (pH 2.7) and 3.40 in data set [2] (pH 7.8).

`CC(C)Nc1nc(Nc2cccc(C3OCCO3)c2)ncc1Cl` [Example 148]: the log p in data set [2] (pH 2.7) came out at 1.7; in data set [2] (pH 7.8) it was 3.04.

With `CC(C)Nc1nc(Nc2cccc(C3OCCCO3)c2)ncc1Cl` [Example 149], the log p amounted to 1.73 in data set [2] (pH 2.7) and 3.2 in data set [2] (pH 7.8).

Turning to `CCC1COC(c2cccc(Nc3ncc(Br)c(NC4CC4)n3)c2)O1` (centres unmarked) [Example 150], in data set [2] (pH 7.8), the log p was 3.68[c].

On to `Brc1cnc(Nc2cccc(C3OCCCO3)c2)nc1NC1CCC1` [Example 151], for which the log p is 2.11 in data set [2] (pH 2.7) and 3.54 in data set [2] (pH 7.8).

In the case of `Clc1cnc(Nc2cccc(C3OCCCO3)c2)nc1NCC1CC1` [Example 152], in data set [2] (pH 2.7), the log p is 1.87[b].

As for `FC(F)(F)c1cnc(Nc2cccc(C3OCCCO3)c2)nc1NC1CC1` [Example 153], the log p in data set [2] (pH 2.7) was 2.71[b].

For the molecule `CCOCCOCC1COC(c2cccc(Nc3ncc(Cl)c(NC4CC4)n3)c2)O1` (centres unmarked) [Example 154], the log p in data set [2] (pH 2.7) turned out to be 2.05; in data set [2] (pH 7.8), 3.13.

Take `CC1CSC(c2cccc(Nc3ncc(C(F)(F)F)c(NC4CC4)n3)c2)S1` (centres unmarked) [Example 155]: the log p in data set [2] (pH 2.7) was found to be 4.14; in data set [2] (pH 7.8) it was 4.44.

Regarding `Clc1cnc(Nc2cccc(C3OCC(CBr)O3)c2)nc1NC1CC1` (centres unmarked) [Example 156], the figures for the log p in data set [2] (pH 2.7) and in data set [2] (pH 7.8) were 2.39 and 3.48, respectively.

With `CC1CCC2OC(c3cccc(Nc4ncc(Cl)c(NC5CC5)n4)c3)OC12` (centres unmarked) [Example 157], the log p in data set [2] (pH 2.7) is on record as 2.79; in data set [2] (pH 7.8), 4.1.

On to `CC1(C)OC(c2cccc(Nc3ncc(Cl)c(NC4CC4)n3)c2)OC1(C)C` [Example 158], for which the log p in data set [2] (pH 2.7) is on record as 2.78; in data set [2] (pH 7.8), 4.13.

`CCC1(CO)COC(c2cccc(Nc3ncc(Cl)c(NC4CC4)n3)c2)OC1` (centres unmarked) [Example 159]: the log p in data set [2] (pH 2.7) is reported as 1.82; in data set [2] (pH 7.8), 2.77.

Take `OCC1CSC(c2cccc(Nc3ncc(Cl)c(NC4CC4)n3)c2)S1` (centres unmarked) [Example 160]: the log p in data set [2] (pH 7.8) was 2.72[c].

In the case of `CC1CSC(c2cccc(Nc3ncc(Cl)c(NC4CC4)n3)c2)S1` (centres unmarked) [Example 161], the log p was 2.79 in data set [2] (pH 2.7) and 4.14 in data set [2] (pH 7.8).

With `OCC1CSC(c2cccc(Nc3ncc(Cl)c(NC4CCC4)n3)c2)S1` (centres unmarked) [Example 162], the log p amounted to 1.93 in data set [2] (pH 2.7) and 3.14 in data set [2] (pH 7.8).

In the case of `CC1CSC(c2cccc(Nc3ncc(Cl)c(NC4CCC4)n3)c2)S1` (centres unmarked) [Example 163], the log p in data set [2] (pH 2.7) was determined as 3.23; in data set [2] (pH 7.8) it was 4.72.

As for `OCC1CSC(c2cccc(Nc3ncc(Br)c(NC4CCC4)n3)c2)S1` (centres unmarked) [Example 164], the results for the log p in data set [2] (pH 2.7) and in data set [2] (pH 7.8) were 2.11 and 3.28, respectively.

For the molecule `CC1CSC(c2cccc(Nc3ncc(Br)c(NC4CCC4)n3)c2)S1` (centres unmarked) [Example 165], the results for the log p in data set [2] (pH 2.7) and in data set [2] (pH 7.8) were 3.49 and 4.92, respectively.

As to `OCC1CSC(c2cccc(Nc3ncc(Br)c(NC4CC4)n3)c2)S1` (centres unmarked) [Example 166], the log p amounted to 1.89 in data set [2] (pH 2.7) and 2.85 in data set [2] (pH 7.8).

`CC1CSC(c2cccc(Nc3ncc(Br)c(NC4CC4)n3)c2)S1` (centres unmarked) [Example 167]: the log p in data set [2] (pH 2.7) is recorded as 3.1; in data set [2] (pH 7.8), 4.31.

With `OCC1CSC(c2cccc(Nc3ncc(C(F)(F)F)c(NC4CC4)n3)c2)S1` (centres unmarked) [Example 168], the results for the log p in data set [2] (pH 2.7) and in data set [2] (pH 7.8) were 2.65 and 3.03, respectively.
